Measurements: PubChem BioAssay (NCI)
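How tested: cells in 96-well plates exposed to compound for 48 hours at five concentrations. The concentration for full growth arrest is given as TGI.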 Where a SMILES comes first, the peptide text is derived from it. [ ]: non-standard residue; d: D form. The star is where a group is joined. Phe(4-NO2) = N[CH](Cc1ccc([N+](=O)[O-])cc1)C(=O)O; Boc = CC(C)(C)OC(=O)*

Columns and labels:
Test in all cases: DTP human tumour cell line panel, 48 h
[1] = test system: NCI-H226 lung
[2] = test system: SF-268 CNS
[3] = test system: A549 NSCLC
[4] = test system: SK-MEL-5 melanoma
[5] = test system: UACC-62 melanoma
[6] = test system: RPMI-8226 leukemia
[7] = test system: CAKI-1 renal
[8] = test system: SK-MEL-2 melanoma
[9] = test system: MDA-MB-231 breast
[10] = test system: SK-MEL-28 melanoma
[11] = test system: COLO 205 colon
[12] = test system: HCT-15 colon
[13] = test system: ACHN renal
[14] = test system: OVCAR-4 ovarian
[15] = test system: NCI/ADR-RES ovarian
[16] = test system: HOP-92 NSCLC
[17] = test system: SK-OV-3 ovarian
[18] = test system: KM12 colon
[19] = test system: SN12C renal
[20] = test system: DU-145 prostate

Measured: TGI

O=C1CSC(c2ccccc2O)N1c1nc2cc3sc(N4C(=O)CSC4c4ccccc4O)nc3cc2s1 (stereo not given)
> 88.1 µM: [1]
> 100 µM: all other assays above

CCCCCC1=C2C(c3ccc(OC)cc3)=C(N)C(c3ccc(OC)cc3)=C3NC(=O)C(C=C1)C32 (stereo not given)
60.7 µM: [16]
96.8 µM: [1]
38.9 µM: [2]
> 100 µM: all other assays above

Cn1cnc2c1c(=O)n(CCNCCO)c(=O)n2C
> 100 µM: all assays above

CC(C)(C)OC(=O)NC(CS(=O)(=O)O)C(=O)O (stereo not given)
> 100 µM: all assays above

COC(=O)CCC(NC(=O)OC(C)(C)C)C(=O)NC(Cc1ccc([N+](=O)[O-])cc1)C(=O)NC(CCC(=O)OC)C(=O)OC (stereo not given) (Boc-Glu(OMe)-[Phe(4-NO2)]-Glu(OMe)-OMe; configuration not given here)
67.3 µM: [6]
> 100 µM: all other assays above

CC1OC(OCC2OC(Oc3ccc(C4CC(=O)c5c(O)cc(O)cc5O4)cc3O)C(O)C(O)C2O)C(O)C(O)C1O (stereo not given)
> 100 µM: all assays above

O=C1OCCC[C@H]2O[C@@H](COCc3ccccc3)C[C@@H]12
> 100 µM: all assays above
